We go through 13 molecules from US12319703B2, “Macrocyclic fused pyrazoles as Mcl-1 inhibitors” (ASCENTAGE PHARMA (SUZHOU) CO., LTD., priority 2019, dated 2025).

Assay [1] has as its target T1, Mcl-1 protein (residues 171-323) (Homo sapiens, UniProt Q07820).
T1 construct: Tag-free Mcl-1 protein (residues 171-323) was used in the FP assay
Briefly: Inhibition of Mcl-1 by fluorescence polarization (FP) competitive binding assay. The conditions noted are these: FAM-Bid tracer 2 nM, Mcl-1 20 nM, 30 min. Here is the method:
Inhibition of Mcl-1 by Fluorescence Polarization (FP) Assay.
The method used a fluorescein labelled peptide (FAM-Bid) which binds to the Mcl-1 protein leading to an increased anisotropy measured in milli-polarization (mP) values using a plate reader.
A 10-points serial dilution of each compound was prepared in DMSO and 5 μL solution was transferred into flat bottomed, 96-well back plate (final DMSO concentration 5%). 120 μL of Buffer (PBS, 0.01% BGG (Sigma Cat. #SRE0011), 0.01% Triton X-100), containing the Fluorescein labelled peptide (Final concentration 2 nM) and Mcl-1 protein (final concentration 20 nM) was then added. […] 10-points dose response curves were plotted with GraphPad software using Sigmoidal Dose-Response Model and the IC50 values were determined by nonlinear regression fitting of the competition curves.

For another assay, the system named is OPM-2 cells. Briefly: Cell viability assay (OPM-2 cells), CCK-8. It counts as cell-based. The conditions noted are these: Homo sapiens, OPM-2, 24 h, WST, 5% FBS, read-out: OPM2 (WST, 5% FBS). As to the method:
Cell Viability Assay (OPM-2 Cells)
OPM-2 cells were obtained from Deutsche Sammlung von Mikroorganismen und Zellkulturen GmbH (DSMZ). […]
The effect of representative Compounds of the Disclosure on cell viability was determined using Cell Counting Kit-8 (CCK-8) assay (Shanghai Life iLab Bio Technology) according to the manufacturer's instructions. Each tested compound was serially diluted in culture medium, 100 μL of the compound dilution was added into 96-well plates. 100 μL of an OPM-2 cell suspension (20000 cells/well) in culture medium were seeded into the corresponding well of the plate and the cells were incubated at 37° C. in an atmosphere of 5% CO2 for 24 hours. In the next day, 20 μL of CCK-8 solution was added to each well of the plate and incubated for 4 hours.
The plates were read at 450 nm on the microplate spectrophotometer (SpectraMax plus 384, Molecular devices). The readings were normalized to the vehicle cells, and the IC50 was calculated by nonlinear regression analysis using GraphPad Prism 6 software.

The subject of the next assay is NCI-H929 cells. Briefly: Cell viability assay (NCI-H929 cells), CCK-8. In kind it is cell-based. The conditions noted are these: Homo sapiens, NCI-H929, 24 h, WST, 5% FBS. As to the method:
Cell Viability Assay (NCI-H929 Cells)
NCI-H929 cells were obtained from American Type Culture Collection (ATCC). Cells were maintained in the recommended culture medium (RPMI 1640) with 10% FBS and 0.05 mM BME at 37° C. and an atmosphere of 5% CO2.
The effect of Compounds on cell viability was determined using Cell Counting Kit-8 (CCK-8) assay according to the manufacturer's instructions. 95 μL of NCI-H929 cell suspension (20000 cells/well) in culture medium were seeded into 96-well plates and cultured 4 hrs. Each tested compound was serially diluted in DMSO, then 5 μL of the compound or DMSO was diluted in 95 μL medium once more. At last, 5 μL of the compound dilution was added to the corresponding well of the cell plate. After the addition of the tested compound, the cells were incubated at 37° C. in an atmosphere of 5% CO2 for 24 hrs. At the end, 10 μL of CCK-8 solution was added to each well of the plate and incubated for 1-4 hours. The plates were read at 450 nm on the microplate reader (BioTek Synergy 1MF). The readings were normalized to the vehicle cells, and the IC50 was calculated by nonlinear regression analysis using GraphPad Prism 6 software.

T1 sequence (Q07820 171-323): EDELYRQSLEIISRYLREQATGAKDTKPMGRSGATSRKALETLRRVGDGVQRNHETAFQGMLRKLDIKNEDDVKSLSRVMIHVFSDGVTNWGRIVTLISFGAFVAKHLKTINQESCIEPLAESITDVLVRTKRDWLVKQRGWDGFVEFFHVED

As to `Cn1nc2cc1CSc1cc(c3ccc(F)cc3c1)OCCCc1c(C(=O)O)n(C)c3c(c(Cl)ccc13)-c1c(nn3c1CCC3)CN(S(=O)(=O)Cc1ccccc1)C2` [compound 41, (Z)-4-(benzylsulfonyl)-1^6-chloro-9^6-fluoro-1,6^1-dimethyl-2^5,2^6-dihydro-1^1H,2^4H,6^1H-10-oxa-8-thia-4-aza-1(7,3)-indola-2(3,2)-pyrrolo[1,2-b]pyrazola-6(3,5)-pyrazola-9(3,1)-naphthalenacyclotridecaphane-1^2-carboxylic acid], the IC50 in assay [1] was found to be 12 nM; in the assay on OPM-2 cells it was 327 nM; in the assay on NCI-H929 cells, 366 nM.
The matching figures for `Cn1nc2cc1CSc1cc(c3ccccc3c1)OCCCc1c(C(=O)O)n(C)c3c(c(Cl)ccc13)-c1c(nn3c1CCCC3)CSC2` [compound 20, (Z)-1^6-chloro-1^1,6^1-dimethyl-2^4,2^5,2^6,2^7-tetrahydro-1^1H,6^1H-10-oxa-4,8-dithia-2(3,2)-pyrazolo[1,5-a]pyridina-1(7,3)-indola-6(3,5)-pyrazola-9(3,1)-naphthalenacyclotridecaphane-1^2-carboxylic acid]: 15.2 nM, 174 nM and 49 nM.
The corresponding values for `Cc1c(Cl)cc2cc1SCc1cc(nn1C)CSCc1nn3c(c1-c1c(Cl)ccc4c(c(C(=O)O)n(C)c14)CCCO2)CCCC3` [Cpd. No. 37, (Z)-1^6,9^5-dichloro-1^1,6^1,9^6-trimethyl-2^4,2^5,2^6 2^7-tetrahydro-1^1H,6^1-10-oxa-4,8-dithia-2(3,2)-pyrazolo[1,5-a]pyridina-1(7,3)-indola-6(3,5)-pyrazola-9(1,3)-benzenacyclotridecaphane-1^2-carboxylic acid] are 38 nM, 1050 nM and 535 nM.
The matching figures for `Cn1nc2cc1CSc1cc(c3ccc(F)cc3c1)OCCCc1c(C(=O)O)n(C)c3c(c(Cl)ccc13)-c1c(C(F)F)nn(C)c1CN(S(C)(=O)=O)C2` [compound 51, (Z)-1^6-chloro-2^3-(difluoromethyl)-9^6-fluoro-1^1,2^1,6^1-trimethyl-4-(methylsulfonyl)-1^1H,2^1H,6^1H-10-oxa-8-thia-4-aza-1(7,3)-indola-2(4,5),6(3,5)-dipyrazola-9(3,1)-naphthalenacyclotridecaphane-1^2-carboxylic acid]: 19 nM, 152 nM and 110 nM.
As to `Cn1nc2cc1CSc1cc(c3ccc(F)cc3c1)OCCCc1c(C(=O)O)n(C)c3c(c(Cl)ccc13)-c1c(nn3c1CCCCC3)CSC2` [compound 28, (Z)-1^6-chloro-9^6-fluoro-1^1,6^1dimethyl-2^5,2^6,2^7,2^8-tetrahydro-1^1H,2^4H,6^1H-10-oxa-4,8-dithia-2(3,2)-pyrazolo[1,5-a]azepina-1(7,3)-indola-6(3,5)-pyrazola-9(3,1)-naphthalenacyclotridecaphane-1^2-carboxylic acid], the IC50 stood at 15.9 nM in assay [1], 184 nM in the assay on OPM-2 cells and 55 nM with NCI-H929 cells.
The corresponding values for `Cc1c2c(nn1C)CN(S(=O)(=O)C(F)(F)F)Cc1cc(n(C)n1)CSc1cc(c3ccc(F)cc3c1)OCCCc1c(C(=O)O)n(C)c3c-2c(Cl)ccc13` [compound 46, (Z)-1^6-chloro-9^6-fluoro-1^1,2^1,2^5,6^1-tetramethyl-4-((trifluoromethyl)sulfonyl)-1^1H,2^1H,6^1H-10-oxa-8-thia-4-aza-1(7,3)-indola-2(4,3),6(3,5)-dipyrazola-9(3,1)-naphthalenacyclotridecaphane-1^2-carboxylic acid] are 12 nM, 49 nM and 61 nM.
Take `Cn1nc2cc1CSc1cc(c3ccccc3c1)OCCCc1c(C(=O)O)n(C)c3c(c(Cl)ccc13)-c1c(nn3c1OCCC3)CSC2` [compound 22, (Z)-1^6-chloro-1^1,61-dimethyl-2^6,2^7-dihydro-1^1H,2^5H,6^1H-10-oxa-4,8-dithia-2(3,2)-pyrazolo[5,1-b][1,3]oxazina-1(7,3)-indola-6(3,5)-pyrazola-9(3,1)-naphthalenacyclotridecaphane-1^2-carboxylic acid]: the IC50 in assay [1] is 15.9 nM; in the assay on OPM-2 cells it was 1150 nM; in the assay with NCI-H929 cells, 225 nM.
The matching figures for `Cn1nc2cc1CSc1cc(c3ccccc3c1)OCCCc1c(C(=O)O)n(C)c3c(c(Cl)ccc13)-c1c(nn3c1CN(S(C)(=O)=O)CC3)CSC2` [compound 25, (Z)-1^6-chloro-1^1,6^1-dimethyl-2^5-(methylsulfonyl)-2^4,2^5,2^6,2^7-tetrahydro-1^1H,6^1H-10-oxa-4,8-dithia-2(3,2)-pyrazolo[1,5-a]pyrazina-1(7,3)-indola-6(3,5)-pyrazola-9(3,1)-naphthalenacyclotridecaphane-1^2-carboxylic acid]: 14.9 nM, 9050 nM and 4970 nM.
The corresponding values for `Cc1nc2oc1CSc1cc(c3ccccc3c1)OCCCc1c(C(=O)O)n(C)c3c(c(Cl)ccc13)-c1c(nn3c1CCC3)CSC2` [compound 10, 1^6-chloro-1^1,6^4-dimethyl-2^5,2^6-dihydro-1^1H,2^4H-10-oxa-4,8-dithia-6(2,5)-oxazola-1(7,3)-indola-2(3,2)-pyrrolo[1,2-naphthalenacyclotridecaphane-b]pyrazola-9(3,1)-1^2-carboxylic acid] are 10.5 nM, 8810 nM and 1970 nM.
The corresponding values for `Cn1nc2cc1CSc1cc(c3ccc(Cl)cc3c1)OCCCc1c(C(=O)O)n(C)c3c(c(Cl)ccc13)-c1c(nn3c1COCC3)CSC2` [compound 19, (Z)-1^6,9^6-dichloro-1^1,6^1-dimethyl-2^6,2^7-dihydro-1^1H,2^4H,6^1H-10-oxa-4,8-dithia-2(3,2)-pyrazolo[5,1-c][1,4]oxazina-1(7,3)-indola-6(3,5)-pyrazola-9(3,1)-naphthalenacyclotridecaphane-1^2-carboxylic acid] are 16 nM, 384 nM and 250 nM.
Consider `Cn1c(C(=O)O)c2c3ccc(Cl)c(c31)-c1c(nn3c1CCC3)CSCc1cc(on1)CSc1cc(c3ccccc3c1)OCCC2` [compound 8, (Z)-1^6-chloro-1^1-methyl-2^5,2^6-dihydro-1^1H,2^4H-10-oxa-4,8-dithia-6(3,5)-isoxazola-1(7,3)-indola-2(3,2)-pyrrolo[1,2-b]pyrazola-9(3,1)-naphthalenacyclotridecaphane-1^2-carboxylic acid], for which the figures for the IC50 (in assay [1]; in the assay on OPM-2 cells; with NCI-H929 cells) were 10.2 nM, above 10000 nM and 2940 nM, respectively.
The matching figures for `Cn1nc2nc1CSc1cc(c3ccccc3c1)OCCCc1c(C(=O)O)n(C)c3c(c(Cl)ccc13)-c1c(nn3c1CCC3)CSC2` [compound 13, (Z)-1^6-chloro-1^1,6^1-dimethyl-2^5,2^6-dihydro-1^1H,2^4H,6^1H-10-oxa-4,8-dithia-1(7,3)-indola-2(3,2)-pyrrolo[1,2-b]pyrazola-6(3,5)-triazola-9(3,1)-naphthalenacyclotridecaphane-1^2-carboxylic acid]: 14.6 nM, above 10000 nM and 4300 nM.
The matching figures for `Cn1c(C(=O)O)c2c3ccc(Cl)c(c31)-c1c(nn3c1CCC3)CSCc1coc(n1)CSc1cc(c3ccccc3c1)OCCC2` [compound 2, (Z)-1^6-chloro-1^1-methyl-2^5,2^6-dihydro-1^1H,2^4H-10-oxa-4,8-dithia-6(4,2)-oxazola-1(7,3)-indola-2(3,2)-pyrrolo[1,2-b]pyrazola-9(3,1)-naphthalenacyclotridecaphane-1^2-carboxylic acid]: 14 nM, 1140 nM and 287 nM.
